According to PubChem BioAssay (NCI):
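Method: 48-hour compound exposure of cells in 96-well plates, five concentrations, linear interpolation of endpoints. GI50: concentration for 50% inhibition of growth. TGI: concentration producing complete growth inhibition.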

Assays:
Assay in all cases: growth of human tumour cells (NCI), 48 h
CAKI-1 renal = test system: CAKI-1 renal
CCRF-CEM leukemia = test system: CCRF-CEM leukemia
EKVX NSCLC = test system: EKVX NSCLC
HT29 colon = test system: HT29 colon
IGROV1 ovarian = test system: IGROV1 ovarian
NCI-H522 lung = test system: NCI-H522 lung
SF-268 CNS = test system: SF-268 CNS
UACC-257 melanoma = test system: UACC-257 melanoma
HOP-92 NSCLC = test system: HOP-92 NSCLC
MDA-MB-435 = test system: MDA-MB-435

SMILES	TGI (CAKI-1 renal)	TGI (CCRF-CEM leukemia)	TGI (EKVX NSCLC)	TGI (HT29 colon)	TGI (IGROV1 ovarian)	TGI (NCI-H522 lung)	TGI (SF-268 CNS)	TGI (UACC-257 melanoma)	TGI (HOP-92 NSCLC)	GI50 (CCRF-CEM leukemia)	GI50 (EKVX NSCLC)	GI50 (HOP-92 NSCLC)	GI50 (IGROV1 ovarian)	GI50 (NCI-H522 lung)	GI50 (SF-268 CNS)	GI50 (UACC-257 melanoma)	GI50 (HT29 colon)	GI50 (MDA-MB-435)	TGI (MDA-MB-435)
Cn1c(=O)nc2n(-c3ccc(F)cc3)c3ccccc3nc-2c1=O	73.3 µM	63.7 µM	32 µM	38.7 µM	56.5 µM	35.4 µM	> 100 µM	28.5 µM											
O=C(CCc1nnc2s/c(=C\c3ccc4c(c3)OCO4)c(=O)n12)Nc1cc(Cl)ccc1Cl	> 100 µM	> 100 µM	> 100 µM	> 100 µM	> 100 µM	> 100 µM	> 100 µM	> 100 µM	> 100 µM										
O=C(CCCCC(=O)N/N=C\c1ccccc1Cl)N/N=C\c1ccccc1Cl		> 100 µM	> 100 µM		> 100 µM	41.1 µM	56.7 µM	> 100 µM	19.2 µM	> 100 µM	1.73 µM	1.95 µM	8.79 µM	2.13 µM	13.5 µM	2.54 µM			
Cc1cc2cc(Cl)ccc2nc1C(=O)c1ccccc1	> 100 µM				> 100 µM	> 100 µM	> 100 µM	> 100 µM											
O=C1C(c2ccc([N+](=O)[O-])cc2)=[N+]([O-])c2ccccc21	> 100 µM	> 100 µM	> 100 µM	> 100 µM	> 100 µM	20.3 µM	> 100 µM		77.4 µM										
C#CC[C@@H]1C[C@]2(C)[C@H]3CC[C@@H]4[C@H]5[C@H](C(=C)C)CC[C@]5(C(=O)O)CC[C@@]4(C)[C@]3(C)CC[C@H]2C(C)(C)[C@H]1O		9.02 µM	10.6 µM	3.69 µM	15.6 µM	12.3 µM	10.1 µM	13.4 µM	4.18 µM	2.36 µM	2.63 µM	1.7 µM	4.21 µM	2.95 µM	2.81 µM	3.73 µM	1.93 µM	3.03 µM	10.8 µM
COc1cc(C2c3cc4c(cc3[C@H](NC(=O)c3cccs3)C3COC(=O)[C@H]23)OCO4)cc(OC)c1OC (stereo partly drawn)			> 100 µM	11.2 µM	> 100 µM	0.0213 µM	> 40.8 µM	> 100 µM	70.3 µM										
COc1ccc(C(=O)/C(=N/Nc2ccccc2)c2ccc(OC)cc2)cc1	> 100 µM		> 100 µM	> 100 µM	> 100 µM	> 100 µM		> 100 µM											
[N-]=[N+]=Nc1ccccc1-[n+]1noc([O-])c1Br	> 100 µM	> 100 µM	> 100 µM	> 100 µM	> 100 µM	> 100 µM	> 100 µM	> 100 µM	> 100 µM										
COCC1C(=O)c2cc3c(cc2C12C=CC1(C=C2)OCCO1)OCO3 (stereo not drawn)	29.8 µM	4.38 µM	30.4 µM	15 µM	29.4 µM	3.96 µM	16 µM	32.6 µM	29.6 µM										
